Data published in patent US20100022509A1, “Inhibitors of MshC and Homologs Thereof, and Methods of Identifying Same” (priority 2006, published 2010).

What was measured:
Type in all cases: biochemical, M. tuberculosis
MshC [1] = target: T1, MshC (Mycobacterium tuberculosis, UniProt P9WJM9); experiment: Metal chelation by phenanthrolines; conditions: 0.1-5 mM phenanthroline
T1 sequence (P9WJM9 1-414): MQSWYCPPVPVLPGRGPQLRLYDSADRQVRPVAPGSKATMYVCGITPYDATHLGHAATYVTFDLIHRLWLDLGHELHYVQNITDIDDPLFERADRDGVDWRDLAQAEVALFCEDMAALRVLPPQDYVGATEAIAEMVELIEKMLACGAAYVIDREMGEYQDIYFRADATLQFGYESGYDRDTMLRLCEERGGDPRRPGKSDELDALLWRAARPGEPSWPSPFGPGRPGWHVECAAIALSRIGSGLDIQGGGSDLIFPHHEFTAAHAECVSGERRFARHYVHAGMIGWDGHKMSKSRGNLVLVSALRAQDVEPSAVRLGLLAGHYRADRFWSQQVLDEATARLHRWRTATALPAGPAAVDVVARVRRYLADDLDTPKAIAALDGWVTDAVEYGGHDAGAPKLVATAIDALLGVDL

MshC [2] = target: T1, MshC; experiment: Inhibition studies of MshC ligase activity (HEPES pH 7.5, HPLC); conditions: for inhibition of the ligase activity, in words: 80-1600 μM, 70 μM L-Cys and 50 μM GlcN-Ins; for % inhibition: 50 μM GlcN-Ins and 70 μM Cys
MshC [3] = target: T1, MshC
MshC [4] = target: T1, MshC; experiment: Zn supplementation; conditions: 2, 10, 50 or 100 μM zinc chloride
MshC [5] = target: T1, MshC; experiment: biochemical; conditions: using the HPLC assay
MshC [6] = target: T1, MshC; experiment: Coupled enzyme spectrophotometric screening assay (MshC plus pyrophosphatase, malachite green); conditions: 1.6 mM cysteamine, 1 μg MshC

Row | SMILES | inhibition of the ligase activity, in words (MshC [2]) | relative spec. act. (MshC [3]) | % inhibition (MshC [2]; [inhibitor] 1600 μM) [%] | other results
1 | c1cnc2c(c1)ccc1cccnc12 [1,10-phenanthroline] |  |  |  | effect on enzyme activity, in words (MshC [1]): no significant loss of activity
2 | N[C@@H](CO)C(=O)O [L-serine] | very minor inhibition | ≦0.008 |  | % inhibition (MshC [2]; [inhibitor] 5000 μM): 15 ± 8%; activity as alternative substrate to Cys, in words (MshC [3]; 80 μM to 1.6 mM): Nor was significant activity detected
3 | [Cl-].[Cl-].[Zn+2] [Zn^2+, zinc chloride] |  |  |  | effect on enzyme activity, in words (MshC [4]): loss in activity
4 | NCCS [cysteamine] |  | ≦0.16 | 65 ± 10 | inhibition of the reaction catalyzed by MshC, in words (MshC [5]): weak inhibitor; rate of phosphate production in the coupled enzyme assay (MshC [6]): markedly depressed; reduction in rate (MshC [2]; 1.6 mM): 3 fold
5 | O=C(O)CCS [β-mercaptopropionate, β-mercaptopropionic acid] | minor inhibition | ≦0.004 | −20 ± 20 | 
